Results reported in publication PMC3276566, “Specialized Peptidoglycan Hydrolases Sculpt the Intra-bacterial Niche of Predatory Bdellovibrio and Increase Population Fitness” (PLoS Pathogens, 2012).

Legend:
[1] = molecular target: T1, Bd3459 (Bdellovibrio bacteriovorus, UniProt Q6MHT0, A37M/S70A); assay: fluorescent labelling, SDS-PAGE, Typhoon fluorescence scan; assay type: binding; conditions: active-site serine mutant; labelled compound; 1.25 ug/ml Bocillin-FL, 75 ug/ml protein, 20 mM sodium phosphate pH 4.8, 10 min, 37 °C
T1 construct: E. coli BL21(DE3), modified pET41 (GST removed), Hi-Trap His column; about 46 kDa; likely monomer
T1 sequence (Q6MHT0 entry or part of it A37M/S70A): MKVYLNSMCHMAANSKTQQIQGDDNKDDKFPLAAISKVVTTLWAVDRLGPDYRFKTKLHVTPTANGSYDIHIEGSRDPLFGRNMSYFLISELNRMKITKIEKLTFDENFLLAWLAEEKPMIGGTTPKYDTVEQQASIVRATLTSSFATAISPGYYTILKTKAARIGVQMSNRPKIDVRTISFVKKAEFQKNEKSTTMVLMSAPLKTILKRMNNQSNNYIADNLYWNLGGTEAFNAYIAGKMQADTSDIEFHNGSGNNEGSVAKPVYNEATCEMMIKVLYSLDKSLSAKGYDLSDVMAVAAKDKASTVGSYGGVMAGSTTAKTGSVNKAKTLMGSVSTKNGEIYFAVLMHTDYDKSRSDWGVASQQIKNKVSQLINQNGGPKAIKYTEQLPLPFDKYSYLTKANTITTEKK

[2] = molecular target: T2, Bd3459 (Bdellovibrio bacteriovorus, UniProt Q6MHT0, A37M); assay: as above; assay type: binding; conditions: covalent; labelled compound; 1.25 ug/ml Bocillin-FL, 75 ug/ml protein, 20 mM sodium phosphate pH 4.8, 10 min, 37 °C
T2 construct: E. coli BL21(DE3), modified pET41 (GST removed), Hi-Trap His column; about 46 kDa; likely monomer
T2 sequence (Q6MHT0 entry or part of it A37M): as the sequence (Q6MHT0 entry or part of it A37M/S70A) above, with A34S counted along it

[3] = molecular target: T2, Bd3459; assay: HPLC muropeptide analysis of digested pentapeptide-rich peptidoglycan; also competition with Bocillin-FL labelling; assay type: biochemical; conditions: inhibitor pre-incubated at 0.4 mg/ml, 30 min, 37 °C; E. coli CS703-1 peptidoglycan, 20 mM sodium phosphate pH 4.8; labelling assay 2.5 ug/ml ampicillin

| Compound | fluorescent labelling, SDS-PAGE, Typhoon fluorescence scan [1] | fluorescent labelling, SDS-PAGE, Typhoon fluorescence scan [2] | HPLC muropeptide analysis of digested pentapeptide-rich peptidoglycan; also comp [3] |
| --- | --- | --- | --- |
| Cc1cc(C)n2c1C=C1C=CC(CCC(=O)Nc3ccc(OCC(=O)N[C@@H]4C(=O)N5[C@@H]4SC(C)(C)[C@@H]5C(=O)O)cc3)=[N+]1[B-]2(F)F [Bocillin-FL] | Bd3459 (S70A) bound significantly less Bocillin-FL | Bd3459 covalently bound the fluorescent beta-lactam Bocillin-FL | – |
| CC1(C)S[C@@H]2[C@H](NC(=O)[C@H](N)c3ccccc3)C(=O)N2[C@H]1C(=O)O [ampicillin] | – | – | The addition of the beta-lactam ampicillin inhibited the WT enzyme |
